Test results taken from patent publication EP0059009A1, “Pharmaceutical compositions containing quinoline derivatives as active component, a method for the preparation of such compositions, new quinoline derivatives and a method for the preparation thereof” (ACF Chemiefarma N.V., priority 1981, dated 1982).

Legend:
[1] = test system: guinea pigs; assay: Guinea pigs electrostimulation test (arrhythmias induced by electrostimulation of the right ventricle); assay type: in vivo; conditions: for Percent increase in voltage (%) required for arrhythmia: given intraduodenally 30 min before stimulation, anaesthetised guinea pigs, treated vs control animals
Method: Arrhythmias are induced in guinea pigs by electro- stimulation of the right ventricle of the heart. The animals are anaesthesized with urethane (1.2 g/kg i.p.) and artificially respirated before a needle electrode is inserted in the right venticle of the heart. Substances are given intraduodinally 30 min. before the stimulation at a standard dose of 32 mg/kg.
The voltage needed for induction of extra systoles in control animals (n = 6) is compared with that required for induction of arrhythmias in treated animals (n = 6).
-This method is based on the work of L. Szekeres and G.J. Papp, Naunyn-Schmiedebergs Arch. Exp. Path. Pharmak., 245, 70 (1963).

[2] = test system: malaria; conditions: reported by Ainly and King, Proc. Roy. Soc. (London) B 125, 49 (1938); cited from earlier work

For C=CC1CNCCC1CCC(O)c1ccnc2ccc(OC)cc12 (stereo not drawn) [I, Quinicinol-l.bifumarate], the “Percent increase in voltage (%) required for arrhythmia” value ([1]; Dose 16 mg/kg) was 25% and the “Percent increase in voltage (%) required for arrhythmia” value ([1]; Dose 32 mg/kg) was 114%.

In the case of C=CC1CNCCC1CCC(O)c1ccnc2ccccc12 (stereo not drawn) [III], the “Percent increase in voltage (%) required for arrhythmia” value ([1]; Dose 32 mg/kg) is reported as 35%.

For CCC1CNCCC1CCC(O)c1ccnc2ccc(OC)cc12 (stereo not drawn) [II], the “Percent increase in voltage (%) required for arrhythmia” value ([1]; Dose 16 mg/kg) was 33.9% and the “Percent increase in voltage (%) required for arrhythmia” value ([1]; Dose 32 mg/kg) was 176%.

With CCC1CNCCC1CC(O)Cc1ccnc2ccc(OC)cc12 (stereo not drawn) [Reference com-pound of formula 6a, reference compound] the “Percent increase in voltage (%) required for arrhythmia” value ([1]; Dose 16 mg/kg) was 0% and the “anti-arrhythmic screen using the electro-stimulation test” value ([1]; result in words, dose not given) was “inactive”.

For CCC1CNCCC1CCC(O)c1ccnc2ccc(OCCC(C)C)cc12 (stereo not drawn) [VII], the “Percent increase in voltage (%) required for arrhythmia” value ([1]; Dose 23.5 mg/kg) was 85%.

In the case of CCC1CNCCC1CCC(O)c1ccnc2ccc(OC)cc12 (stereo not drawn) [dihydroquiniconol, dihydroquinicinol], the anti-malaria activity [2] is given as “did not show anti-malaria activity”.
